Test results as given in US6868343B1, “Interactions between substances and surfaces that are made up of amphiphilic molecules” (NIMBUS Biotechnologie GmbH, priority 1998, dated 2005).

What was measured:
[1] = Membrane-water distribution by HPLC on solid-supported egg lecithin bilayer (column A1); type: physicochemical; settings: column A1, pH 7.4, 23° C., calculated from retention time via calibration curve; read-out: logDcal-PC, pH 7.4
From the text: A natural mixture of egg lecithin and 0.03 mole % fluorescence marker 1-hexadecanoyl-2-(1-pyrenedecanoyl)-sn-glycero-3-phosphocholine is suspended in chloroform and the solvent completely removed in vacuo. The lipids are subsequently dispersed in the aqueous buffer (pH 7.4) and small, unilamellar vesicles are produced by ultrasonic treatment. By mixing with spherical, porous silicate structures (silicate gel with 10 μm sphere diameter and 400 nm pore size) at temperatures higher than the Tm of the lipids, the corresponding solid-supported lipid bilayer is obtained by the spontaneous fusion of the vesicles on the silicate surface. […]
For determining the dead time t0 in the selected system, 5 μl of a 5 mM potassium iodide solution is injected into buffer A. In the case of the HPLC column A1 in reproducible manner a t0 of 0.64 min is measured and for column A2 t0=0.58 min. […]
The quantities of compound to be injected are determined on the one hand by its adsorption tendency on the stationary phase and on the other by the detectability of the compound. As a rule most reference compounds can be detected using spectroscopic methods (here UV/V is spectroscopy at 210 nm). The measured retention times tR are directly correlated with the octanol/water partition coefficient using a prior art equation system. […]
In the present example logD cal-PC, pH 7.4 is determined.

[2] = Partition coefficient between solid-supported membrane C (DEPC) and aqueous compartment, UV/Vis at 304 nm; type: physicochemical; settings: pH 7.4, tetracaine 25 μm, buffer A
From the text: The process for determining lipid binding constants with the aid of solid, biocompatible surfaces can also be used for pharmaceuticals. […] For an analyzing the partition coefficient of this pharmaceutical between the lipid and water phases, as described in example 1, porous silicate structures are coated with a charge-neutral membrane of 99.97 mole % zwitterionic lecithin 1,2-dielaidoyl-sn-3-glycero-3-phosphocholine (DEPC) and 0.03 mole % fluorescence marker 1-hexadecanoyl-2-(-pyrenedecanoyl)-sn-glycero-3-phosphocholine (hereinafter called membrane C).
The active agent tetracaine to be analyzed is placed in double sample form in aqueous solution (buffer A) in a constant concentration of 25 μm and mixed with different quantities of membrane C (concentration range of the lipid 5*10^−5−2*10^−3 mole/l). […] The free active agent concentration in the supernatant material can be rapidly determined in the case of the UV-active compound tetracaine with the aid of UV/Vis spectroscopy (detection at 304 nm). Alternatively the remaining lipid-free supernatant materials can be analyzed using chromatographic methods (HPLC, gas chromatography, etc.). […]
The partition coefficient found for tetracaine between the solid-supported membrane C and the aqueous compartment at the physiologically relevant pH-value 7.4 is 1.4. The binding constants are calculated according to standard procedures.

Structure (SMILES) | chromatographic logD [1] | partition coefficient between solid-supported membrane C and aqueous compartment [2]
CC(=O)CC(c1ccccc1)c1c(O)c2ccccc2oc1=O (centres unmarked) [Warfarin, 3-(-acetonylbenzyl)-4-hydroxycoumarin] | 1.1 | 
CCCCNc1ccc(C(=O)OCCN(C)C)cc1 [tetracaine] |  | 1.4
